From patent US20040087798A1, “Novel amide compounds” (priority 2000, published 2004) come the findings set out here.

System in one series: not given
Experiment: not given
Details: not given
What is called melting point is the temperature, or range, at which the solid turns liquid. Compound `O=C(C/C=C/c1ccccc1)Nc1cccc(-n2ccnc2)c1` [Compound (a), (3E)-N-[3-(imidazol-1-yl)phenyl]-4-phenyl-3-butenamide] yielded a melting point of 130 to 133 °C.

Compound `CN(C)c1ccc(C(=N)Nc2cccc(NC(=O)C=Cc3ccccc3)c2)cc1` [Example 51, N-[3-[[[4-(dimethylamino)phenyl](imino)methyl]amino]phenyl]cinnamamide] had a melting point of 225 to 227 °C.

The compound `N=C(Nc1cccc(NC(=O)/C=C/c2cccc(Cl)c2)c1)c1ccccc1` [Example 53, (2E)-N-[3-(iminobenzylamino)phenyl]-3-(3-chlorophenyl)-2-propenamide] displayed a melting point of 260 to 262 °C.

`N=C(Nc1cccc(NC(=O)/C=C/c2ccccc2Cl)c1)c1ccccc1` [Example 54, (2E)-N-[3-(iminobenzylamino)phenyl]-3-(2-chlorophenyl)-2-propenamide]: the melting point fell in the range of 262 to 264 °C.

`N=C(Nc1cc(Cl)cc(NC(=O)/C=C/c2ccccc2C(F)(F)F)c1)c1ccsc1` [Example 56, (2E)-N-[3-chloro-5-[[imino(3-thienyl)methyl]amino]phenyl]-3-[2-(trifluoromethyl)phenyl]-2-propenamide] came in with a melting point of 121 to 123 °C. Compound `O=C(C=Cc1ccccc1Cl)Nc1cccc(-c2nc3ccccc3[nH]2)c1` [Example 58, N-[3-(1H-benzimidazol-2-yl)phenyl]-3-(2-chlorophenyl)-2-propenamide] had a melting point of 152 to 154 °C.

Consider `Cc1ncccc1Oc1ccc(C(=N)Nc2cc(Cl)cc(NC(=O)C=Cc3ccccc3Cl)c2)cc1` [Example 59, N-[3-chloro-5-[[imino[4-[(2-methyl-3-pyridyl)oxy]phenyl]methyl]amino]phenyl]-3-(2-chlorophenyl)-2-propenamide], for which the melting point fell in the range of 105 to 107 °C.

Take `N=C(Nc1cccc(NC(=O)/C=C/c2ccccc2C(F)(F)F)c1F)c1ccccc1` [Example 61, (2E)-N-[3-(iminobenzylamino)-2-fluorophenyl]-3-[2-(trifluoromethyl)phenyl]-2-propenamide]: the melting point was in the range of 185 to 187 °C. Take `N=C(Nc1ccc(F)c(NC(=O)/C=C/c2ccccc2C(F)(F)F)c1)c1cccs1` [Example 62, (2E)-N-[2-fluoro-5-[[imino(2-thienyl)methyl]amino]phenyl]-3-[2-(trifluoromethyl)phenyl]-2-propenamide]: the melting point was in the range of 208 to 209 °C.

The compound `Cc1ncccc1Oc1ccc(C(=N)Nc2cc(Cl)cc(NC(=O)C=Cc3ccccc3C(F)(F)F)c2)cc1` [Example 64, N-[3-chloro-5-[[imino[4-[(2-methyl-3-pyridyl)oxy]phenyl]methyl]amino]phenyl]-3-[2-(trifluoromethyl)phenyl]-2-propenamide] returned a melting point of 114 to 119 °C. On the same count and under the same terms, then `N#Cc1ccccc1/C=C/C(=O)Nc1cc(Cl)cc(NC(=N)c2ccccc2)c1` [Example 67, (2E)-N-[3-chloro-5-(iminobenzylamino)phenyl]-3-(2-cyanophenyl)-2-propenamide], with 220 to 221 °C; and `N=C(Nc1cc(F)cc(NC(=O)/C=C/c2ccccc2C(F)(F)F)c1)c1ccccc1` [Example 137, (2E)-N-[3-fluoro-5-(iminobenzylamino)phenyl]-3-(2-trifluoromethylphenyl)-2-propenamide], with 103 to 105 °C; and `N=C(Nc1cc(Cl)cc(NC(=O)/C=C/c2ccccc2F)c1)c1ccccc1` [Example 138, (2E)-N-[3-chloro-5-(iminobenzylamino)phenyl]-3-(2-fluorophenyl)-2-propenamide], with 186 to 187 °C. `Cc1ccc(NC(=N)c2ccccc2)cc1NC(=O)/C=C/c1ccccc1C(F)(F)F` [Example 139, (2E)-N-[5 (iminobenzylamino)-2-methylphenyl]-3-(2-trifluoromethylphenyl)-2-propenamide] gave a melting point of 220 to 222 °C. For `COc1ccc(NC(=N)c2ccccc2)cc1NC(=O)/C=C/c1ccccc1C(F)(F)F` [Example 140, (2E)-N-[5-(iminobenzylamino)-2-methoxyphenyl]-3-(2-trifluoromethylphenyl)-2-propenamide], the melting point was in the range of 208 to 210 °C. Still for that read-out and setting: then `N=C(Nc1ccc(Cl)c(NC(=O)/C=C/c2ccccc2C(F)(F)F)c1)c1ccccc1` [Example 141, (2E)-N-[2-chloro-5-(iminobenzylamino)phenyl]-3-(2-trifluoromethylphenyl)-2-propenamide], with 198 to 199 °C; and `N=C(Nc1cc(Cl)cc(NC(=O)/C=C/c2ccccc2Br)c1)c1ccccc1` [Example 142, (2E)-N-[3-chloro-5-(iminobenzylamino)phenyl]-3-(2-bromophenyl)-2-propenamide], with 99 to 101 °C. On the same count and under the same terms, then `Cc1ccc(NC(=O)/C=C/c2ccccc2C(F)(F)F)cc1NC(=N)c1ccccc1` [Example 143, (2E)-N-[3-(iminobenzylamino)-4-methylphenyl]-3-(2-trifluoromethylphenyl)-2-propenamide], with 112 to 116 °C. Regarding `COc1ccc(NC(=O)/C=C/c2ccccc2C(F)(F)F)cc1NC(=N)c1ccccc1` [Example 144, (2E)-N-[3-(iminobenzylamino)-4-methoxyphenyl]-3-(2-trifluoromethylphenyl)-2-propenamide], the melting point lay in the range of 213 to 214 °C. Same read-out and setting: in the case of `N=C(Nc1cc(NC(=O)/C=C/c2ccccc2C(F)(F)F)ccc1Cl)c1ccccc1` [Example 145, (2E)-N-[4-chloro-3-(iminobenzylamino)phenyl]-3-(2-trifluoromethylphenyl)-2-propenamide] it was 188 to 189 °C.

For `CS(=O)(=O)Nc1cc(NC(=N)c2ccccc2)cc(NC(=O)/C=C/c2ccccc2C(F)(F)F)c1` [Example 146, (2E)-N-[3 (iminobenzylamino)-5-(methylsulfonylamino)phenyl]-3-(2-trifluoromethylphenyl)-2-propenamide], the melting point lay within 150 to 155 °C. With `CS(=O)(=O)Nc1ccc(C(=N)Nc2cc(Cl)cc(NC(=O)/C=C/c3ccccc3Cl)c2)cc1` [Example 147, (2E)-N-[3-chloro-5-[imino(4-methylsulfonylaminobenzyl)amino]phenyl]-3-(2-chlorophenyl)-2-propenamide], the melting point is 158 to 160 °C. Same read-out and setting: then `N=C(Nc1cc(Cl)cc(NC(=O)/C=C/c2ccccc2C(F)(F)F)c1)c1ccccc1F` [Example 148, (2E)-N-[3-chloro-5-[imino(2-fluorobenzyl)amino]phenyl]-3-(2-trifluoromethylphenyl)-2-propenamide], with 209 to 210 °C; and `CC(=O)Nc1ccc(C(=N)Nc2cc(NC(=O)/C=C/c3ccccc3C(F)(F)F)c(F)cc2F)cc1` [Example 152, (2E)-N-[2,4-difluoro-5-[imino(4-acetylaminobenzyl)amino]phenyl]-3-(2-trifluoromethylphenyl)-2-propenamide], with 180 to 185 °C. On the same count and under the same terms, in the case of `N=C(Nc1cc(Cl)c(Cl)c(NC(=O)/C=C/c2ccccc2C(F)(F)F)c1)c1ccccc1` [Example 154, (2E)-N-[2,3-dichloro-5-(iminobenzylamino)phenyl]-3-(2-trifluoromethylphenyl)-2-propenamide] it was 213 to 214 °C. With `O=C(C=Cc1ccccc1Cl)Nc1cc(Cl)cc(Nc2noc3ccccc23)c1` [Example 186, N-[3-(1,2-benzisoxazol-3-ylamino)-5-chlorophenyl]-2-chlorocinnamamide], the melting point fell in the range of 133 to 135 °C. `N=C(Nc1cc(Cl)cc(NC(=O)/C=C/c2c[nH]c3ccccc23)c1)c1ccccc1` [Example 205, (2E)-N-[3-chloro-5-[[imino(phenyl)methyl]amino]phenyl]-3-(1H-indole-3-yl)-2-propenamide] yielded a melting point of 184 to 187 °C.

The target of a further series is T1, 5-HT2c binding site (Rattus norvegicus, UniProt P08909).
T1 construct: ability to displace [^3H]-mesulergine in the rat prefrontal cortex; from tissue; host or cells: rat prefrontal cortex membrane suspension
T1 sequence (P08909 33-460): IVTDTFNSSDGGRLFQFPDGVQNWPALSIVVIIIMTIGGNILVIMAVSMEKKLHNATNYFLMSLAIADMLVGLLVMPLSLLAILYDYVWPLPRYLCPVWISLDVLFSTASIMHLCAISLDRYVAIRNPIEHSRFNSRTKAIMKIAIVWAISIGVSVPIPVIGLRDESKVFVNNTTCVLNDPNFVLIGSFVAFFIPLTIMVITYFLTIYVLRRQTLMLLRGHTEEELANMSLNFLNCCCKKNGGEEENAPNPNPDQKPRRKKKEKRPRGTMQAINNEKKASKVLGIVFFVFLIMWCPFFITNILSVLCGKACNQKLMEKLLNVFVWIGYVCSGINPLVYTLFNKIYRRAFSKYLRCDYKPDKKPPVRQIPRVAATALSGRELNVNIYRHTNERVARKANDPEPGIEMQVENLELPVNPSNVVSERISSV
The experiment in a line: [3H]-mesulergine binding. To be noted: test drug 10^−6M; displacement of [3H]-mesulergine (1 nM) in rat prefrontal cortex membranes; 30 nM spiperone present. The method, then: [^3H]-mesulergine Binding
The affinity of test drugs for the 5-HT2c binding site can be determined by assessing their ability to displace [^3H]-mesulergine in the rat prefrontal cortex. The method employed was similar to that of Pazos et al, 1984.
The membrane suspension (500 μl) was incubated with [^3H]-mesulergine (1 nM) in Tris hydrochloric acid buffer solution (pH 7.4) containing calcium chloride 4 mM and ascorbic acid 0.1% at 37° C. for 30 minutes. Non-specific binding was measured in the presence of mianserin (1 μM). 30 nM spiperone was used to prevent binding to 5-HT2A sites. Test drugs (10^−6M) were added in a volume of 100 μl. The total assay volume was 1000 μl. Incubation was stopped by rapid filtration using a Brandel cell harvester and radioactivity measured by scintillation counting.
Usually inhibition stands for the share of the control response that was lost under treatment. A high value points to strong suppression. As for `O=C(C/C=C/c1ccccc1)Nc1cccc(-n2ccnc2)c1` [Compound (a), (3E)-N-[3-(imidazol-1-yl)phenyl]-4-phenyl-3-butenamide], testing at 1 µM gave an inhibition of 82%.
